This note sets out measurements from ChEMBL document CHEMBL4406819, “Targeting the subpocket in xanthine oxidase: Design, synthesis, and biological evaluation of 2-[4-alkoxy-3-(1H-tetrazol-1-yl) phenyl]-6-oxo-1,6-dihydropyrimidine-5-carboxylic acid derivatives” (Eur J Med Chem, 2019).

Calls of active or inactive are those of the source. The rule behind the calls is not given here.

Assay [1] relates to Rattus norvegicus. Put plainly: Hypouricemic activity in Sprague-Dawley rat model of potassium oxonate-induced acute hyperuricemia assessed as decrease in serum uric acid level at 5 mg/kg, ig administered 1 hr before potassium oxonate challenge and measured after 3 hrs.
Assay [2] deals with Rattus norvegicus. Put plainly: Hypouricemic activity in Sprague-Dawley rat model of potassium oxonate-induced acute hyperuricemia assessed as decrease in serum uric acid level at 10 mg/kg, ig administered 1 hr before potassium oxonate challenge and measured after 3 hrs.

For `Cc1nc(-c2ccc(OCC(C)C)c(C#N)c2)sc1C(=O)O`, in assay [1], the result was Active.
In the case of `Oc1ncnc2[nH]ncc12`, in assay [2], the result was Active.
